Measurements reported in US10072065B2, “Peptide-mediated delivery of immunoglobulins across the blood-brain barrier” (Mayo Foundation for Medical Education and Research, priority 2015, dated 2018).

System: blood-brain barrier (BBB)
Assay: Transportation of Evan's Blue (EB) across the BBB after IV Apo-I or peptide-cetuximab complex
Type: in vivo, mouse
Conditions: ~40 μL 2% EB only, IV femoral vein, brain evaluated approximately 2 hours after dye (brain number 1)
Protocol: To explore whether Apo-I transports an antibody across the BBB, the peptide or a peptide-cetuximab complex were first injected by IV followed by injection of Evan's Blue (EB; a routinely used small molecule blue dye with a molecular weight of 960.81) by IV into the femoral vein of a mouse. Cardiac perfusion was performed and the brains of the mice were removed and evaluated approximately 2 hours following injection of the dye. As a control, injection of EB only was used. The particulars of each administration are as follows: • 1) ˜40 μL 2% EB only was injected. • 2) 300 μg of Apo-I was injected first, then ˜40 μL 2% EB was injected. • 3) 600 μg of Apo-I was injected first, then ˜40 μL 2% EB was injected. • 4) 600 μg of Apo-I was mixed with 200 μg cetuximab prior to injection and then injected first, then ˜40 μL 2% EB was injected.

Structure (SMILES): Cc1cc(-c2ccc(/N=N/c3ccc4c(S(=O)(=O)[O-])cc(S(=O)(=O)[O-])c(N)c4c3O)c(C)c2)ccc1/N=N/c1ccc2c(S(=O)(=O)[O-])cc(S(=O)(=O)[O-])c(N)c2c1O.[Na+].[Na+].[Na+].[Na+] [EB, Evan's Blue]
- EB reaching the brain (blue coloring of brain): cannot reach the brain
